Tests used:
[1] = target: T1, leukotriene receptor (guinea pig trachea) (Cavia porcellus, UniProt Q2NNR5); test: Assay 1 - Guinea Pig Tracheae, leukotriene receptor antagonism (LTD4 contraction); conditions: antagonist added 45 minutes prior, read-out: GP trach (pKb) (converted)
T1 construct: Trachea were cut into ring segments and the epithelium removed; from tissue; host or cells: guinea pig tracheal rings, epithelium removed (male Hartley)
T1 sequence (Q2NNR5 1-340): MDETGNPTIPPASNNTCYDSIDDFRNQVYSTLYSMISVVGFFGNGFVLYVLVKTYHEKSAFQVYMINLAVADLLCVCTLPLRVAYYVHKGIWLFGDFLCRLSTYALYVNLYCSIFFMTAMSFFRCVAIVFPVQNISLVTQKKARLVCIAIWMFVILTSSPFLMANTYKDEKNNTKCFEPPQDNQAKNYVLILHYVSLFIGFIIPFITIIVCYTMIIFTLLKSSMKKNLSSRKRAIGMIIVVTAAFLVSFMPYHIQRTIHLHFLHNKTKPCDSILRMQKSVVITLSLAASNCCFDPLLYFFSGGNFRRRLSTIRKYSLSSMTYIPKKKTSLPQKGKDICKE
Protocol: Assay 1--Guinea Pig Tracheae
Leukotriene receptor antagonism was evaluated in isolated smooth muscles by the following procedure:
Male Hartley guinea pigs weighing 250-400 grams were asphyxiated with CO2 and exsanguinated. Trachea were excised and placed in Krebs'-bicarbonate solution of the following composition in mM/liter: NaCl, 118.2; NaHCO3, 24.8; KCl, 4.6; KH2 PO4, 1.2, MgSO4.7H2 O, 1.2; dextrose, 10.0; CaCl2.2H2 O, 2.5; 1-cysteine, 3.0, and indomethacin, 3 μM. Trachea were cut into ring segments and the epithelium removed by gently rubbing the luminal surface with a cotton swab. Tracheal rings were placed on supports constructed from two 1 inch 30 gauge disposable stainless steel hypodermic needles (Hooker, et al., 1977, Blood Vessels 14:1-11), and transferred to organ baths containing Krebs' solution maintained at 37° C. and aerated with 95% O2 and 5% CO2. Isometric measurements were made with a Grass FTO3C force-displacement transducer and recorded on a Grass polygraph as changes in grams of force. After approximately 60 minutes of equilibration, a single submaximal concentration of LTD4 (3×10^-8 M) was used to contract the trachea. Two LTD4 concentration-response curves were then generated using the cumulative response technique of Van Rossum (1963). A potential leukotriene receptor antagonist was added to the tissue bath 45 minutes prior to generation of the second LTD4 concentration-response curve.
(§1) The contractions of trachea and ilea to LTD4 in the presence of the drug was compared to responses in the absence of drug. KB values were calculated by the method of Furchgott (Ann. N.Y. Acad. Sci., 139:553, 1967) using the following equation: KB =[Antagonist]/Dose-Ratio-1.

[2] = target: T2, LTD4 receptor (intestinal smooth muscle receptors, guinea pig ileum) (Cavia porcellus, UniProt Q2NNR5); test: Assay 2 - Guinea Pig Ileum, antagonism of LTD4 contraction; conditions: drug added 30 minutes prior, read-out: GP ileum (pKb) (converted)
T2 construct: Terminal ilea were removed from the animals; from tissue; host or cells: guinea pig terminal ileum segments
T2 sequence (Q2NNR5 1-340): T1 sequence (Q2NNR5 1-340)
Protocol: Assay 2--Guinea Pig Ileum:
Guinea pig ileum was used to determine the potency of novel LTD4 receptor antagonists on intestinal smooth muscle receptors. Terminal ilea were removed from the animals exsanguinated after CO2 asphyxiation and cut into smaller segments of approximately 2 to 3 cm. Tissues were placed in organ baths containing Krebs'bicarbonate solution prepared without indomethacin and 1-cysteine and aerated with 95% O2 and 5% CO2. After a 60 minute equilibration period, 3 submaximal contractions to histamine (3×10^-6 M) were obtained on all tissues. A cumulative concentration-response curve to LTD4 was then generated using the method of Van Rossum (Arch. Int. Pharmacodyn. Ther. 143:299, 1963). Agonist was washed from the baths and the tissues permitted to recover. After a second LTD4 concentration-response curve was produced, the ilea were washed once again and permitted to re-equilibrate. Experimental drug was added to the baths 30 minutes prior to a final LTD4 concentration-response curve.
as §1

[3] = target: T3, LTD4 receptor (guinea pig lung membrane) (Cavia porcellus, UniProt Q2NNR5); test: Assay 3 - Guinea Pig Lung Membrane [3H] LTD4 Radioligand Binding (GPLM binding); conditions: [3H] LTD4, guinea pig lung membrane, 30 min, 30° C., pH 6.5; for Ki: read-out: GPLM binding (pKi) (converted)
T3 construct: guinea-pig lung membrane preparation; from tissue; host or cells: guinea pig lung membranes
T3 sequence (Q2NNR5 1-340): T1 sequence (Q2NNR5 1-340)
Protocol: Assay 3--Guinea Pig Lung Membrane [^3 H] LTD4 Radioligand Binding: [^3 H] LTD4 was purchased from New England Nuclear (Boston, Mass.). All other chemicals were purchased from Sigma (St. Louis, Mo.). Incubations were performed in silanised glass tubes and contained 30 mg of guinea-pig lung membrane preparation (Saussy, et al., Mol. […] The binding reaction was terminated after 30 min. at 30° C. by the addition of 4 ml ice cold wash buffer (25 mM Tris --HCl, pH 7.5), followed immediately by vacuum filtration over Whatman (GF/C glass fibre filters, using a Brandel (Gaithersburg, Md.) 48 place harvester. The tubes and filter were washed 3×4 ml in cold wash buffer. Retained radioactivity was determined by liquid scintillation counting at 50% counting efficiency using Ready Protein Plus cocktail (Beckman, Fullerton, Calif.). Data were analyzed using linear regression analysis of log-logit plots of the values between 10% and 90% of control biding to calculate I[…] and slope factors (pseudo-Hill coefficients). IC50 values were corrected for radioligand concentrations (Cheng and Prusoff, Biochem. Pharmacol. 22:3099-3108, 1973) to calculate Ki values.

Row | SMILES | Kb [1] [nM] | Kb [2] [nM] | GPLM binding (pKi) [3] | Ki [3] [nM]
1 | Clc1ccc2ccc(/C=C/c3cccc(CN4CCc5cccc(CCc6nnn[nH]6)c54)c3)nc2c1 [Example 4, 5-[2-[1-[3-[2-E-(7-Chloroquinolin-2-yl)ethenyl]benzyl]-2,3-dihydroindol-7-yl]ethyl]-1H-tetrazole] | 28.8 | 2.34 | 8.3 | –
2 | Clc1ccc2ccc(COc3cccc(CN4CCc5cccc(CCc6nnn[nH]6)c54)c3)nc2c1 [Example 5, 5-[2-[1-[3-(7-Chloroquinolin-2-ylmethoxy)benzyl]-2,3-dihydroindol-7-yl]-ethyl]-1H-tetrazole] | 8.32 | 3.89 | 8.0 | –
3 | Clc1ccc2ccc(COc3ccc(CN4CCc5cccc(CCc6nnn[nH]6)c54)cc3)nc2c1 [Example 6, 5-[2-[1-[4-(7-Chloroquinolin-2-ylmethoxy)benzyl]-2,3-dihydroindol-7-yl]-ethyl]-1H-tetrazole] | 25.7 | 3.24 | 7.6 | –
4 | c1cc(CN2CCc3cccc(CCc4nnn[nH]4)c32)cc(OCc2ccc3ccccc3n2)c1 [Example 7, 5-[2-[1-[3-(Quinolin-2-ylmethoxy)benzyl]-2,3-dihydroindol-7-yl]-ethyl]-1H-tetrazole] | 15.8 | 11.2 | 7.3 | –

The remaining lines, values ahead:

Row | Kb [1] [nM] | Kb [2] [nM] | GPLM binding (pKi) [3] | Ki [3] [nM] | SMILES
5 | – | 2.51 | 7.8 | – | C(=C\c1ccc2ccccc2n1)/c1cccc(CN2CCc3cccc(CCc4nnn[nH]4)c32)c1 [Example 9, 5-[2-[1-[3-[2-E-(Quinolin-2-yl)ethenyl]benzyl]-2,3-dihydroindol-7-yl]ethyl]-1H-tetrazole]
6 | – | – | – | 2.45 | Clc1ccc2ccc(/C=C/c3cccc(CN4CCc5cccc(OCc6nn[nH]n6)c54)c3)nc2c1 [Example 10, 5-[1-[3-[2-E-(7-Chloroquinolin-2-yl)ethenyl]benzyl]-2,3-dihydroindol-7-yloxymethyl]-1H-tetrazole]
7 | – | – | – | 2.34 | Clc1ccc2ccc(/C=C/c3ccc(CN4CCc5cccc(CCc6nnn[nH]6)c54)cc3)nc2c1 [Example 11, 5-[2-[1-[4-[2-E-(7-Chloroquinolin-2-yl)ethenyl]benzyl]-2,3-dihydroindol-7-yl]-ethyl]-1H-tetrazole]
